Results as given in patent publication US20140088144A1, “INHIBITING MICROBIAL INFECTIONS” (THE UNIVERSITY OF KANSAS, priority 2012, published 2014).

Biological target: VirF (Shigella flexneri, UniProt P0A2T1)
Assay: In vivo dose-response, VirF-activated virB-lacZ fusion in E. coli
Format: cell-based
Parameters: expressed in transfected cells; host or cells: E. coli SME4382 (virB-lacZ, pHG165virF)
Text: For dose-response studies, a virB-lacZ reporter strain was constructed that allowed IPTG (isopropyl-β-D-thiogalactopyranoside) induced expression of VirF from plasmid pHG165. To construct this virB-lacZ reporter strain, kMAD102 was isolated from strain AB97, used to infect strain ECL116, and single copy lysogens were identified. Plvir-mediated generalized transductions were then used to add malP::lacI^q and recA::cat to this strain, as described previously. The virF gene was amplified (Forward oligo, Reverse oligo), digested with EcoRI and PstI and then ligated into the same sites of plasmid pHG165. The resulting plasmid, pHG165virF was transformed into SME4259 to make SME4382 (FIG. 20, Top). A control strain, SME3359, which carries a single copy hts-lacZ reporter fusion in the chromosome and a plasmid pHG165lacI that expresses LacI protein (FIG. 20, Bottom), was constructed. Briefly, the hts-lacZ reporter fusion consists of a synthetic promoter that is repressed by Lad.
In vivo dose-response assays were performed using a procedure described previously. […] Bacterial cultures were mixed with varying concentrations of SE-1 (2.2% DMSO, final), induced with 6.5 mM IPTG for 3 h at 37° C., lysed and β-galactosidase activity was measured. […] IC50 values were calculated and graphs were drawn using Prism (GraphPad, La Jolla, Calif.).

Chain of VirF (P0A2T1 whole entry, the tested form may be a part): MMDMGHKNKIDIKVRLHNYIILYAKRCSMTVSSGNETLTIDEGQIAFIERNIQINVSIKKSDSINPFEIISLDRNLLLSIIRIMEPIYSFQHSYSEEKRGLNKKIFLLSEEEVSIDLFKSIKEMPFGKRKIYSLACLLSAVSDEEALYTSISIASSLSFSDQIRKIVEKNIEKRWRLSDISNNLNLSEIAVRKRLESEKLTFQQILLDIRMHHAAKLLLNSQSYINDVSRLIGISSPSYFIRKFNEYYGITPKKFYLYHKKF

With CCCCN1C=C(c2ccc3ccccc3n2)C(C[N+](=O)[O-])c2ccccc21 (centres unmarked) [Compound 1, 1-butyl-4-(nitromethyl)-3-quinolin-2-yl-4H-quinoline] the IC50 (IC50, virB-lacZ reporter fusion expression, E. coli strain with plasmid-expressed VirF) was ~8 µM and the “inhibition of in vivo activation by VirF” value (compared with full-length RhaS) was “similar, if not greater, extent than full-length RhaS”.
